Measured values: patent publication US10689378B2, “Triazolopyridine compounds and uses thereof” (Novartis AG, priority 2016, dated 2020)
Where two headings read alike, the source gives them in different places.

Legend:
[1] = target: wild type PRC2 (wtPRC2) complex (Homo sapiens, UniProt O75530); assay: EED LC-MS assay (SAH production by PRC2); assay type: biochemical
Outline: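 Pentameric PRC2 (EZH2, SUZ12, EED, Rbap48, AEBP), 12 nM final, preincubated 20 min with compound and SAM, then 1.5 μM biotinylated H3K27me0 peptide, 1 μM SAM, pH 8.0, 120 min at rt. SAH quantified by LC-MS/MS with d4-SAH; control-normalized activity fitted for IC50.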

[2] = target: T1, EED (1-441)-His protein (Homo sapiens, UniProt O75530); assay: EED-H3K27Me3 peptide competition binding assay by AlphaScreen
T1 construct: 30 nM EED (1-441)-His protein
Outline: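 Serially diluted compound (12 points, 3-fold) incubated 20 min with 30 nM EED(1-441)-His and 15 nM biotin-H3K27Me3(19-33) peptide in 25 mM HEPES pH 8, 0.02% Tween-20, 0.5% BSA. Ni-chelate acceptor/streptavidin donor beads (10 μg/mL each) added, 1 h rt dark; 615 nm emission normalized to controls, dose-response fit for IC50.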

[3] = system: H3K27 methylation in G401 cell; assay: ELISA (H3K27 methylation) assay in G401 cells; assay type: cell-based, human; settings: Homo sapiens
Outline: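 G401 cells treated 48 h with 3-fold dilutions (8 or 12 points, top 20 μM). Acid-extracted histones probed by ELISA for H3K27me3 or H3K27me2 with ECL readout, normalized to total H3. Percent inhibition versus DMSO fitted to dose-response curve for IC50.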

[4] = PRC2 LC-MS assay, read-out: (b) IC50 EED LC-MS Qualified
[5] = EED-H3K27Me3 peptide competition, AlphaScreen, read-out: (a) IC50 EED Alphascreen binding Qualified
[6] = G-401, H3K27 methylation ELISA, read-out: (c) IC50 ELISA Qualified
[7] = read-out: (b) IC50, EED LC-MS Qualified
[8] = read-out: (a) IC50, EED Alphascreen binding Qualified
[9] = G-401, read-out: (c) IC50, ELISA Qualified
[10] = read-out: (b) IC50 EED LC-MS Qualified
[11] = read-out: (a) IC50 EED Alphascreen binding Qualified
[12] = G-401, read-out: (c) IC50 ELISA Qualified

Chain of wild type PRC2 (wtPRC2) complex (O75530 whole entry): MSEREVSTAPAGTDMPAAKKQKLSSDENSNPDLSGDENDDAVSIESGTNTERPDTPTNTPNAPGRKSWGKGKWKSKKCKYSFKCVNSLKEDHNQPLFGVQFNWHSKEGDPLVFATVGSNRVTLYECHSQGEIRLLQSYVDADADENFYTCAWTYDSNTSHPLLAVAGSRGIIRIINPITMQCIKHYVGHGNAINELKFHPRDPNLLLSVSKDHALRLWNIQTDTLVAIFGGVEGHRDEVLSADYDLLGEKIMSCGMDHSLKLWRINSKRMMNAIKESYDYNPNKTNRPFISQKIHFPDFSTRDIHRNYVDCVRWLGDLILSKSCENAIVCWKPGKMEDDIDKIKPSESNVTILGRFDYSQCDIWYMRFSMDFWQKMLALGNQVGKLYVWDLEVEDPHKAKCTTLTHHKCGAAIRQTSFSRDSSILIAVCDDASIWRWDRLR
Chain of wild type PRC2 (wtPRC2) complex (Q15910 whole entry partner): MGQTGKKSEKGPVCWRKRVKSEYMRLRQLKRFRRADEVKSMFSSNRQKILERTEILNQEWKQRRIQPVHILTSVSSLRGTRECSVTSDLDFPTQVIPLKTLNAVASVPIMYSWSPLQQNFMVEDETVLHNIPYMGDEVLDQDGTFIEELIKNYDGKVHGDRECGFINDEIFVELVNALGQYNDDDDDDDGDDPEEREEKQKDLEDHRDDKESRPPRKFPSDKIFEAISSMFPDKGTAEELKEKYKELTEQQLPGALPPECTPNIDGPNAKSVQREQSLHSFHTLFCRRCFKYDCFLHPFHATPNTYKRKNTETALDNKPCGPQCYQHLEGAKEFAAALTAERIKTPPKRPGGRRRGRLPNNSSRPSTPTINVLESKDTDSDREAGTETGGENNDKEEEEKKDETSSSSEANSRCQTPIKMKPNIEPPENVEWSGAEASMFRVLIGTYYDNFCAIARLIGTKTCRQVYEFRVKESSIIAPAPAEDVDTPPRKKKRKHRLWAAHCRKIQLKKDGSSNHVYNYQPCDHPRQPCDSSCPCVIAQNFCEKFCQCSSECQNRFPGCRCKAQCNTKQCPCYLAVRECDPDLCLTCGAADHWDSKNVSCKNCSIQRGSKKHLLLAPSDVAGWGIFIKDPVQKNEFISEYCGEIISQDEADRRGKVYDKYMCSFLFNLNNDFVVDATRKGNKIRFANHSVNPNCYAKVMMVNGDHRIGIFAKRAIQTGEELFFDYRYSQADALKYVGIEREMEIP
Chain of wild type PRC2 (wtPRC2) complex (Q15022 whole entry partner): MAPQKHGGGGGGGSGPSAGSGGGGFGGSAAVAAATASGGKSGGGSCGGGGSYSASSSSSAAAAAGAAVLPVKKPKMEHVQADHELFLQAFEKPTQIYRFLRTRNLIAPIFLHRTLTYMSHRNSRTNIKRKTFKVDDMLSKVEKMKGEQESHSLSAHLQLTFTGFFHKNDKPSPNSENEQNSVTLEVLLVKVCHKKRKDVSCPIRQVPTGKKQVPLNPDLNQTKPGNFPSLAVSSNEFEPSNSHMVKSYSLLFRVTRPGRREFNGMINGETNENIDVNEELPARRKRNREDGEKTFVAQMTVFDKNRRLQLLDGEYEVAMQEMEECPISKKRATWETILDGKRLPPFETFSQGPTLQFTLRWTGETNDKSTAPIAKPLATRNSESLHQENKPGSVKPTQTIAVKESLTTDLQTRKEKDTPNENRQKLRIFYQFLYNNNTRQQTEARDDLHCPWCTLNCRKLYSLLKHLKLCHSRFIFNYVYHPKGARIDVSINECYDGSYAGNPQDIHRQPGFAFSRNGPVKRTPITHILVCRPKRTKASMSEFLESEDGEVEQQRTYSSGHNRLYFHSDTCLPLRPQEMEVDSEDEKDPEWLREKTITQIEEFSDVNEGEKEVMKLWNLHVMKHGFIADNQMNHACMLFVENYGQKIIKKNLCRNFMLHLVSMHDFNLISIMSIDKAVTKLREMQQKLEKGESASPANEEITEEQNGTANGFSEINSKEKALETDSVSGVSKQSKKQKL
Chain of wild type PRC2 (wtPRC2) complex (Q09028 whole entry partner): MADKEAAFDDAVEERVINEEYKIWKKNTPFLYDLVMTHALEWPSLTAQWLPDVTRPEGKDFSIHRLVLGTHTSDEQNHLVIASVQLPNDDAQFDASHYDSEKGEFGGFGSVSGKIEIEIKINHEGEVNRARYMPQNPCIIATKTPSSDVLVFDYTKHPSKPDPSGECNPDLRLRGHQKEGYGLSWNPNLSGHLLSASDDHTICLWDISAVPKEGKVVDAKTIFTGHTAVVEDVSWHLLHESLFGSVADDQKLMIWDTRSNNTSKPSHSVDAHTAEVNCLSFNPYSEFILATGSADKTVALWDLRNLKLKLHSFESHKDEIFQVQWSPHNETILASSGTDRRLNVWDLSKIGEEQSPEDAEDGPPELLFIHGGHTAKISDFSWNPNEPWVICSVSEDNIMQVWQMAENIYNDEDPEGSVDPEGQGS
Chain of wild type PRC2 (wtPRC2) complex (Q6ZN18 whole entry partner): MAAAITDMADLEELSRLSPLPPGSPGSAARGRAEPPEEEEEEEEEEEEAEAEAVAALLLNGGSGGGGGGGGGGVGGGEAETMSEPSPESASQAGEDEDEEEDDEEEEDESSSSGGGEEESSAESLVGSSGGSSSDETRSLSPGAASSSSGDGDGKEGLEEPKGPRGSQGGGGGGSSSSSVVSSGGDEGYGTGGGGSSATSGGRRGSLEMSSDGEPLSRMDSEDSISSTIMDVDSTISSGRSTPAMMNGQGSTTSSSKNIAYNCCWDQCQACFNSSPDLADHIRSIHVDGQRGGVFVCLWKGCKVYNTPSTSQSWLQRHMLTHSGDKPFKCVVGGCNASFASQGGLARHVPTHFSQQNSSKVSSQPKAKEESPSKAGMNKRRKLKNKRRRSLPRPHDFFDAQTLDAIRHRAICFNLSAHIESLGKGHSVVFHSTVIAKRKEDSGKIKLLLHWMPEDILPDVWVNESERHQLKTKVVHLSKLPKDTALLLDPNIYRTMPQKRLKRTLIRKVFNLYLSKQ
T1 sequence (O75530 whole entry): as the sequence (O75530 whole entry) above

Row | IC50 [1, 4] | IC50 [2, 5] | IC50 [3, 6] | IC50 [1, 7] | IC50 [2, 8] | IC50 [3, 9] | Compound | also measured
1 | 44.4 nM | 9.6 nM | 10.5 nM | – | – | – | COc1cccc(F)c1CNc1ccc(-c2cnc(C3CC3)nc2C)c2nncn12 [Example 284, 8-(2-cyclopropyl-4-methylpyrimidin-5-yl)-N-(2-fluoro-6-methoxybenzyl)-[1,2,4] triazolo[4,3-a]pyridin-5-amine] | –
2 | – | – | – | 509 nM | 80.3 nM | 330 nM | COc1ccccc1CNc1ccc(-c2ccc(NS(C)(=O)=O)cc2)c2nncn12 [Example 82, N-(4-(5-((2-methoxybenzyl)amino)-[1,2,4]triazolo[4,3-a]pyridin-8-yl)phenyl) methanesulfonamide] | –
3 | – | – | – | 120 nM | 33.2 nM | 36 nM | COc1cccc(F)c1CNc1ccc(-c2ccc(C)nc2)c2nncn12 [Example 164, N-(2-fluoro-6-methoxybenzyl)-8-(6-methylpyridin-3-yl)-[1,2,4]triazolo[4,3-a]pyridin-5-amine] | –
4 | 24.5 nM | 7.6 nM | 10.4 nM | – | – | – | COc1cccc(F)c1CNc1ccc(-c2cnccc2CO)c2nncn12 [Example 345, (3-(5-((2-fluoro-6-methoxy benzyl)amino)-[1,2,4]triazolo[4,3-a]pyridin-8-yl)pyridin-4-yl)methanol] | –
5 | – | – | – | 930 nM | 81.7 nM | 114 nM | COc1ccccc1CNc1ccc(-c2ccc(S(=O)(=O)N3CCN(C)CC3)cc2)c2nncn12 [Example 18, N-(2-methoxybenzyl)-8-(4-((4-methylpiperazin-1-yl)sulfonyl)phenyl)-[1,2,4] triazolo[4,3-a]pyridin-5-amine] | –
6 | 39.3 nM | 13.3 nM | 9.8 nM | – | – | – | COc1cc(F)cc(F)c1CNc1ccc(-c2cccnc2C(F)F)c2nncn12 [Example 302, N-(2,4-difluoro-6-methoxybenzyl)-8-(2-(difluoromethyl)pyridin-3-yl)-[1,2,4]triazolo[4,3-a]pyridin-5-amine] | –
7 | 1360 nM | 31.1 nM | 48 nM | – | – | – | COc1cc(F)cc(F)c1CNc1ccc(-c2cnc(C)cc2C)c2nncn12 [Example 329, N-(2,4-difluoro-6-methoxybenzyl)-8-(4,6-dimethylpyridin-3-yl)-[1,2,4]triazolo [4,3-a]pyridin-5-amine] | –
8 | 32.3 nM | 15.8 nM | 12.3 nM | – | – | – | COc1cccc(F)c1CNc1ccc(-c2ccc(S(C)(=O)=O)cc2F)c2nncn12 [Example 177, 8-(2-fluoro-4-(methylsulfonyl)phenyl)-N-(2-fluoro-6-methoxybenzyl)-[1,2,4]triazolo[4,3-a]pyridin-5-amine] | –
9 | – | – | – | 454 nM | 46.8 nM | 53 nM | COc1cccc(F)c1CNc1ccc(-c2ccc(NS(C)(=O)=O)c(F)c2)c2nncn12 [Example 106, N-(2-fluoro-4-(5-((2-fluoro-6-methoxybenzyl)amino)-[1,2,4]triazolo[4,3-a]pyridin-8-yl)phenyl) methanesulfonamide] | –
10 | 29.1 nM | 7.7 nM | 3.4 nM | – | – | – | COc1cccc(F)c1CNc1ccc(-c2ccc(C(=O)N(C)C)cc2C)c2nncn12 [Example 231, 4-(5-((2-fluoro-6-methoxybenzyl)amino)-[1,2,4]triazolo[4,3-a]pyridin-8-yl)-N,N,3-trimethylbenzamide] | –
11 | 106 nM | 27.3 nM | 42.3 nM | – | – | – | COc1cccc(F)c1CNc1ccc(-c2cnc(C3CC3)cc2C)c2nncn12 [Example 270, 8-(6-cyclopropyl-4-methylpyridin-3-yl)-N-(2-fluoro-6-methoxybenzyl)-[1,2,4]triazolo[4,3-a]pyridin-5-amine] | –
12 | – | – | – | – | – | – | COc1cccc(F)c1CNc1ccc(-n2ccc(C)n2)c2nncn12 [Example 359, N-(2-fluoro-6-methoxybenzyl)-8-(3-methyl-1H-pyrazol-1-yl)-[1,2,4]triazolo [4,3-a]pyridin-5-amine] | IC50 [1, 10]: 274 nM; IC50 [2, 11]: 42.9 nM; IC50 [3, 12]: 55.1 nM
13 | – | – | – | – | – | – | COc1cccc(F)c1CNc1ccc(-c2cnc(C)n2C)c2nncn12 [Example 366, 8-(1,2-dimethyl-1H-imidazol-5-yl)-N-(2-fluoro-6-methoxybenzyl)-[1,2,4]triazolo[4,3-a]pyridin-5-amine] | IC50 [1, 10]: 45.5 nM; IC50 [2, 11]: 13.3 nM; IC50 [3, 12]: 3.4 nM
14 | – | – | – | 266 nM | 44.4 nM | 51.5 nM | COc1ccccc1CNc1ccc(-c2cccnc2)c2nncn12 [Example 27, N-(2-methoxybenzyl)-8-(pyridin-3-yl)-[1,2,4] triazolo[4,3-a]pyridin-5-amine] | –
15 | 317 nM | 23.7 nM | 11.8 nM | – | – | – | CCc1ncncc1-c1ccc(NCc2c(F)cccc2OC)n2cnnc12 [Example 280, 8-(4-ethylpyrimidin-5-yl)-N-(2-fluoro-6-methoxybenzyl)-[1,2,4]triazolo[4,3-a]pyridin-5-amine] | –
16 | 44.2 nM | 11.2 nM | 11.4 nM | – | – | – | COc1cccc(F)c1CNc1ccc(-c2cnccc2F)c2nncn12 [Example 181, N-(2-fluoro-6-methoxybenzyl)-8-(4-fluoropyridin-3-yl)-[1,2,4]triazolo[4,3-a] pyridin-5-amine] | –
17 | 166 nM | 23.8 nM | 43.1 nM | – | – | – | COc1cccc(F)c1CNc1ccc(-c2cc(C)ncc2C(F)F)c2nncn12 [Example 337, 8-(5-(difluoromethyl)-2-methylpyridin-4-yl)-N-(2-fluoro-6-methoxybenzyl)-[1,2,4]triazolo[4,3-a]pyridin-5-amine] | –
18 | 449 nM | 33 nM | 25.5 nM | – | – | – | COc1cccc(F)c1CNc1ccc(-c2cncc(C(C)(C)O)c2)c2nncn12 [Example 216, 2-(5-(5-((2-fluoro-6-methoxybenzyl)amino)-[1,2,4]triazolo[4,3-a]pyridin-8-yl)pyridin-3-yl)propan-2-ol] | –
19 | – | – | – | 139 nM | 12.4 nM | 40 nM | COc1cccc(F)c1CNc1ccc(-c2ccc(S(N)(=O)=O)cc2)c2nncn12 [Example 100, 4-(5-((2-fluoro-6-methoxybenzyl)amino)-[1,2,4]triazolo[4,3-a]pyridin-8-yl)benzenesulfonamide] | –
20 | 49.4 nM | 16.5 nM | 6.3 nM | – | – | – | COc1cccc(F)c1CNc1ccc(-c2ccc(C(=O)N(C)C)nc2)c2nncn12 [Example 194, 5-(5-((2-fluoro-6-methoxybenzyl)amino)-[1,2,4]triazolo[4,3-a]pyridin-8-yl)-N,N-dimethylpicolinamide] | –
21 | – | – | – | 67.2 nM | 25.8 nM | 18.6 nM | COc1cccc(F)c1CNc1ccc(-c2c(C)nn(CCO)c2C)c2nncn12 [Example 170, 2-(4-(5-((2-fluoro-6-methoxybenzyl)amino)-[1,2,4]triazolo[4,3-a]pyridin-8-yl)-3,5-dimethyl-1H-pyrazol-1-yl)ethanol] | –
22 | – | – | – | 299 nM | 27.1 nM | 103 nM | COc1cccc(F)c1CNc1ccc(-c2cnc(N3CCN(C(C)C)CC3)c(Cl)c2)c2nncn12 [Example 109, 8-(5-chloro-6-(4-isopropylpiperazin-1-yl)pyridin-3-yl)-N-(2-fluoro-6-methoxybenzyl)-[1,2,4] triazolo[4,3-a]pyridin-5-amine] | –
23 | 92 nM | 43.3 nM | 38.8 nM | – | – | – | COc1cccc(F)c1CNc1ccc(-c2cnn(CCN3CCOCC3)c2)c2nncn12 [Example 226, N-(2-fluoro-6-methoxybenzyl)-8-(1-(2-morpholinoethyl)-1H-pyrazol-4-yl)-[1,2,4] triazolo[4,3-a]pyridin-5-amine] | –
24 | 21.5 nM | 7.7 nM | 7.8 nM | – | – | – | COc1cccc(F)c1CNc1ccc(-c2ccc(C)nc2C(F)F)c2nncn12 [Example 315, 8-(2-(difluoromethyl)-6-methylpyridin-3-yl)-N-(2-fluoro-6-methoxybenzyl)-[1,2,4]triazolo[4,3-a]pyridin-5-amine] | –
25 | 42.1 nM | 7.4 nM | 16.2 nM | – | – | – | COc1cccc(F)c1CNc1ccc(-c2c(Cl)ccnc2C)c2nncn12 [Example 338, 8-(4-chloro-2-methylpyridin-3-yl)-N-(2-fluoro-6-methoxybenzyl)-[1,2,4]triazolo[4,3-a] pyridin-5-amine] | –
26 | – | – | – | – | – | – | COc1cccc(F)c1CNc1ccc(-c2cnc(C(C)C)cc2C)c2nncn12 [Example 352, N-(2-fluoro-6-methoxybenzyl)-8-(6-isopropyl-4-methylpyridin-3-yl)-[1,2,4] triazolo[4,3-a]pyridin-5-amine] | IC50 [1, 10]: 106 nM; IC50 [2, 11]: 29.5 nM; IC50 [3, 12]: 32 nM
27 | – | – | – | 269 nM | 15.5 nM | 37.5 nM | COc1ccccc1CNc1ccc(-c2ccc(CN3CCN(C)CC3)cc2)c2nncn12 [Example 39, N-(2-methoxybenzyl)-8-(4-((4-methylpiperazin-1-yl)methyl)phenyl)-[1,2,4] triazolo[4,3-a]pyridin-5-amine] | –
